# Data taken from publication PMC7334220, “Diamond Blackfan anemia is mediated by hyperactive Nemo-like kinase” (Nature Communications, 2020).
# Several values for one entry are separate records, joined by “and”; a condition that tells them apart may be missing. Equal values may be shown once.
# How the values were obtained:
# [1] = system: p38; assay: Reported p38 inhibition (literature / PubChem); type: biochemical; details: 850nM vs 440nM; rebuttal letter
# Source text: But as p38 can phosphorylate NLK, Myb and Raptor in vitro, we performed a series of experiments that indicate NLK-associated p38 is not contributing to substrate phosphorylation. We determined the IC50 values of a panel of eight p38 inhibitors against p38 and NLK in our in vitro kinase assays. For comparison, reported IC50 values from bioassay results submitted to the National Center for Biotechnology Information PubChem Database were tabulated.
# [2] = system: DBA patient HSPCs; assay: Erythroid differentiation (CD235+) of CD34+ HSPCs from DBA patient bone marrow; type: cell-based, human; details: 5 µM SD208; three DBA patients
# Procedure: Cells were counted and assessed for cell surface expression of CD235. b Lin-Kit^+ hematopoietic progenitors were obtained from three mouse embryos expressing tetracycline-inducible shRNA against RPS19 at day E14.5 or three untreated mice, and thee mature RPL11^+/+ or three mature RPL11^+/lox mice treated with tamoxifen for eight weeks. […] Values were expressed as a percentage relative to untreated controls. c, d Intracellular phosphorylation of NLK at Thr298 was determined by capillary electrophoresis using the Peggy Sue™ Automated Western blotting platform. After lysis, 4 µg of protein from the CD235^+ population was probed against pThr298-NLK and normalized to GAPDH. […] After counting the total cell population, the ratio of CD235^+ erythroblasts was determined by flow cytometry and number of CD235^+ erythroblasts calculated. This was expressed as a percentage of the average number of erythroid cells present in untreated healthy controls. f NLK phosphorylation was assessed by capillary electrophoresis as above. Bars represent means ± SD with individual data points overlaid. […] Statistics: two-tailed Student’s t test, significant *p < 0.05. Also see Supplementary Fig. 8. Source data are provided as a Source Data file. […]
# [3] = authors' statement in rebuttal, no data or reference; cited from earlier work
# [4] = system: RPS19-insufficient Lin-Kit+ cells; assay: Erythroid differentiation (Ter119+) of Lin-Kit+ cells from tetracycline-inducible shRPS19 mice; type: cell-based, mouse; details: SD208 with doxycycline; 8 days; three mice; without SD208 24.3, 20.3, 18.5%; Fig. 8b
# Procedure: Cells were counted and assessed for cell surface expression of CD235. b Lin-Kit^+ hematopoietic progenitors were obtained from three mouse embryos expressing tetracycline-inducible shRNA against RPS19 at day E14.5 or three untreated mice, and thee mature RPL11^+/+ or three mature RPL11^+/lox mice treated with tamoxifen for eight weeks. […] Values were expressed as a percentage relative to untreated controls. c, d Intracellular phosphorylation of NLK at […] was determined by capillary electrophoresis using the Peggy SueTM Automated Western blotting platform. […] After counting the total cell population, the ratio of CD235^+ erythroblasts was determined by flow cytometry and number of CD235^+ erythroblasts calculated. This was expressed as a percentage of the average number of erythroid cells present in untreated healthy controls. f NLK phosphorylation was assessed by capillary electrophoresis as above. Bars represent means ± SD with individual data points overlaid. […] Statistics: two-tailed Student's t test, significant *p < 0.05. Also see Supplementary Fig. 8. Source data are provided as a Source Data file. […] RPS19-insufficiency reduced Ter119^+ erythroblasts to 24.3, 20.3, and 18.5% of controls differentiated in the absence of doxycycline.
structure (smiles),measurement,setting,value
Fc1ccc(Cl)cc1-c1nc(Nc2ccncc2)c2nccnc2n1 [SD208],reported p38 IC50 compared to observed NLK IC50,[1],2 fold
same,mean increase of CD235+ erythroblast differentiation with SD208,[2],2.11 fold
same,solubility,[3],poor
same,"Ter119+ erythroblasts, % of controls differentiated without doxycycline",[4],83.2% and 81.1% and 76.6%
